In patent US12226405B2, “Compounds and compositions for inhibiting the activity of HIF2-alpha and their methods of use” (Novartis AG, priority 2020, dated 2025):

Tests used:
[1] = tested on: HIF2α-dependent transcription in 786-O-HRE-Luc cells; assay: In vitro cellular hypoxia response element (HRE) reporter gene assay (RGA) for HIF2α; format: cell-based, human; conditions: Homo sapiens, 24 hours incubation
Procedure, shortened: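 Renal carcinoma cells carrying a 4×HRE-driven PEST-destabilised firefly luciferase were treated a day after seeding with eleven 2-fold compound dilutions (0.1% DMSO) for 24 h at 37° C. BrightGlo luminescence, background-subtracted and expressed as % of DMSO control, was fitted four-parametrically for IC50.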

[2] = tested on: HIF2α-regulated expression of the endogenous target gene hEGLN3 in 786-O cells; assay: Cellular iScript assay for HIF2α (quantitative RT-PCR of hEGLN3); format: cell-based, human; conditions: Homo sapiens, 786-0, 48 hours incubation
Procedure, shortened: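 786-O cells were exposed to eleven 2-fold compound dilutions for 48 h at 37° C. Lysates underwent one-step TaqMan qRT-PCR for hEGLN3 with beta-actin as reference; 2^(−ΔΔCt) versus DMSO, as % of control, was fit with a four-parameter model to give IC50.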

[3] = biological target: HIF2α PAS-B domain (236-350, biotinylated on the N-terminus) (Homo sapiens (Human), UniProt Q99814)
Sequence of HIF2α PAS-B domain (236-350, biotinylated on the N-terminus) (Q99814 236-350): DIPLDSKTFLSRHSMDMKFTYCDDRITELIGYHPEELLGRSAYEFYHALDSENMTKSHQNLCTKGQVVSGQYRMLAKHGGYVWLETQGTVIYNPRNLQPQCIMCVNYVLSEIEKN
Protocol: The assay buffer contained 50 mM Tris-HCl pH7 (Sigma), 20 mM NaCl (Fluka), 0.02% BSA (Sigma), 0.005% Triton X-100 (Pierce) and 1 mM DTT (Fluka). After a 30 min incubation period, 5 μL Streptavidin PVT SPA Beads (Perkin Elmer) at 1.2 mg/mL, diluted in the buffer, were added.

Which IC50 [1] does the source give for `Fc1c(OC(F)F)ccc2c1OCC[C@@]21CN2C=C(C(F)(F)F)C=C(OC(F)F)C2=N1` [Example 54, (S)-7,8′-bis(difluoromethoxy)-8-fluoro-6′-(trifluoromethyl)-3′ H-spiro[chroman-4,2′-imidazo[1,2-a]pyridine]] here?
The IC50 was 0.317 µM.

What about the IC50 [2] of the same molecule?
The IC50 was 0.085 µM.

What about the IC50 [3] of the same molecule?
The IC50 was 0.033 µM.

How did the IC50 [1] turn out when `FC(F)OC1=CC(C(F)(F)F)=CN2C[C@@]3(CCOc4c(C(F)F)cccc43)N=C12` [Example 55, (S)-8′-(difluoromethoxy)-8-(difluoromethyl)-6′-(trifluoromethyl)-3′H-spiro[chroman-4,2′-imidazo[1,2-a]pyridine]] was run?
Its IC50 is 7.65 µM.

And the IC50 [2]?
Its IC50 is 0.115 µM.

And the IC50 [3]?
Its IC50 is 0.009 µM.

Which results are given for `FC(F)OC1=CC(C(F)(F)F)=CN2C[C@@]3(CCOc4c3ccnc4Cl)N=C12` [Example 56, (S)-8′-chloro-8-(difluoromethoxy)-6-(trifluoromethyl)-2′,3′-dihydro-3H-spiro[imidazo[1,2-a]pyridine-2,4′-pyrano[2,3-c]pyridine]]?
IC50 [1]: 6.66 µM; IC50 [2]: 0.164 µM; IC50 [3]: 0.013 µM

Which results are given for `Fc1c(Br)ccc2c1OC[C@H](F)[C@@]21CN2C=C(C(F)(F)F)C=C(OC(F)F)C2=N1` [Example 57, (2′S,3R)-7-bromo-8′-(difluoromethoxy)-3,8-difluoro-6′-(trifluoromethyl)-3′H-spiro[chroman-4,2′-imidazo[1,2-a]pyridine]]?
IC50 [1]: 0.196 µM; IC50 [2]: 0.062 µM; IC50 [3]: 0.012 µM

With `Fc1c(Br)ccc2c1OC[C@@H](F)[C@@]21CN2C=C(C(F)(F)F)C=C(OC(F)F)C2=N1` [Example 58, (2′S,3S)-7-bromo-8′-(difluoromethoxy)-3,8-difluoro-6′-(trifluoromethyl)-3′H-spiro[chroman-4,2′-imidazo[1,2-a]pyridine]] as the molecule, how does the IC50 [1] read?
Its IC50 is 0.183 µM.

And the IC50 [2]?
The IC50 was 0.173 µM.

And the IC50 [3]?
Its IC50 is 0.008 µM.

`FC(F)OC1=CC(C(F)(F)F)=CN2C[C@@]3(N=C12)c1ccc(Br)cc1OC[C@@H]3F` [Example 59, (2′S,3R)-7-bromo-8′-(difluoromethoxy)-3-fluoro-6′-(trifluoromethyl)-3′H-spiro[chroman-4,2′-imidazo[1,2-a]pyridine]] was tested. Which IC50 [1] did it give?
The IC50 was 0.073 µM.

And the IC50 [2]?
The IC50 was 0.055 µM.

What about the IC50 [3] of the same molecule?
The IC50 was 0.012 µM.

Which IC50 [1] does the source give for `FC(F)OC1=CC(C(F)(F)F)=CN2C[C@@]3(N=C12)c1ccc(I)cc1OC[C@@H]3F` [Example 60, (2′S,3R)-8′-(difluoromethoxy)-3-fluoro-7-iodo-6′-(trifluoromethyl)-3′H-spiro[chroman-4,2′-imidazo[1,2-a]pyridine]] here?
Its IC50 is 0.065 µM.

And the IC50 [2]?
Its IC50 is 0.027 µM.

What about the IC50 [3] of the same molecule?
The IC50 was 0.006 µM.

Which IC50 [1] does the source give for `FC(F)OC1=CC(C(F)(F)F)=CN2C[C@@]3(N=C12)c1ccc(C(F)(F)F)cc1OC[C@@H]3F` [Example 61, (2′S,3R)-8′-(difluoromethoxy)-3-fluoro-6′,7-bis(trifluoromethyl)-3′H-spiro[chroman-4,2′-imidazo[1,2-a]pyridine]] here?
Its IC50 is 0.143 µM.

And the IC50 [2]?
Its IC50 is 0.051 µM.

And the IC50 [3]?
The IC50 was 0.017 µM.

`Fc1cccc2c1OC[C@H](F)[C@@]21CN2C=C(C(F)(F)F)C=C(OC(F)F)C2=N1` [Example 62, (2′S,3R)-8′-(difluoromethoxy)-3,8-difluoro-6′-(trifluoromethyl)-3′H-spiro[chroman-4,2′-imidazo[1,2-a]pyridine]] was tested. Which IC50 [1] did it give?
The IC50 was 0.484 µM.

What about the IC50 [2] of the same molecule?
Its IC50 is 0.102 µM.

And the IC50 [3]?
Its IC50 is 0.013 µM.

What does the source list for `Fc1cccc2c1COC[C@@]21CN2C=C(C(F)(F)F)C=C(OC(F)F)C2=N1` [Example 63, (S)-8-(difluoromethoxy)-8′-fluoro-6-(trifluoromethyl)-3H-spiro[imidazo[1,2-a]pyridine-2,4′-isochroman]]?
IC50 [1]: 0.465 µM; IC50 [2]: 0.197 µM; IC50 [3]: 0.011 µM

For `N#CC1=CN2C[C@@]3(CCSc4c3ccc(Cl)c4F)N=C2C(OC(F)F)=C1` [Example 64, (S)-7′-chloro-8-(difluoromethoxy)-8′-fluoro-3H-spiro[imidazo[1,2-a]pyridine-2,4′-thiochroman]-6-carbonitrile], which IC50 [1] is on record?
Its IC50 is 0.236 µM.

What about the IC50 [2] of the same molecule?
The IC50 was 0.051 µM.

And the IC50 [3]?
Its IC50 is 0.01 µM.

What does the source list for `Fc1cccc2c1SCC[C@@]21CN2C=C(C(F)(F)F)C=C(OC(F)F)C2=N1` [Example 65, (S)-8-(difluoromethoxy)-8′-fluoro-6-(trifluoromethyl)-3H-spiro[imidazo[1,2-a]pyridine-2,4′-thiochroman]]?
IC50 [1]: 0.114 µM; IC50 [2]: 0.03 µM; IC50 [3]: ≤ 0.003 µM

For `N#CC1=CN2C[C@@]3(CCSc4c(F)cccc43)N=C2C(OC(F)F)=C1` [Example 66, (S)-8-(difluoromethoxy)-8′-fluoro-3H-spiro[imidazo[1,2-a]pyridine-2,4′-thiochroman]-6-carbonitrile], which IC50 [1] is on record?
Its IC50 is 0.385 µM.

What about the IC50 [2] of the same molecule?
Its IC50 is 0.047 µM.

What about the IC50 [3] of the same molecule?
The IC50 was at most 0.008 µM.

Which IC50 [1] does the source give for `Fc1c(C(F)(F)F)ncc2c1SCC[C@@]21CN2C=C(C(F)(F)F)C=C(OC(F)F)C2=N1` [Example 67, (S)-8-(difluoromethoxy)-8′-fluoro-6,7′-bis(trifluoromethyl)-2′,3′-dihydro-3H-spiro[imidazo[1,2-a]pyridine-2,4′-thiopyrano[3,2-c]pyridine]] here?
Its IC50 is 0.107 µM.

What about the IC50 [2] of the same molecule?
Its IC50 is 0.057 µM.

And the IC50 [3]?
The IC50 was 0.015 µM.

What does the source list for `Fc1cccc2c1OCCC[C@@]21CN2C=C(C(F)(F)F)C=C(OC(F)F)C2=N1` [Example 69, (S)-8′-(difluoromethoxy)-9-fluoro-6′-(trifluoromethyl)-3,4-dihydro-2H,3′H-spiro[benzo[b]oxepine-5,2′-imidazo[1,2-a]pyridine]]?
IC50 [1]: 0.273 µM; IC50 [2]: 0.044 µM; IC50 [3]: 0.009 µM

`FC(F)OC1=CC(C(F)(F)F)=CN2C[C@@]3(CCC(F)(F)c4c3ccnc4C(F)F)N=C12` [Example 70, (S)-8-(difluoromethoxy)-1′-(difluoromethyl)-8′,8′-difluoro-6-(trifluoromethyl)-7′,8′-dihydro-3H,6′H-spiro[imidazo[1,2-a]pyridine-2,5′-isoquinoline]] was tested. Which IC50 [1] did it give?
Its IC50 is 1.67 µM.

And the IC50 [2]?
Its IC50 is 0.096 µM.

And the IC50 [3]?
Its IC50 is 0.02 µM.

`N#CC1=CN2C[C@@]3(CCc4cc(I)ccc43)N=C2C(OC(F)F)=C1` [Example 73, (S)-8-(difluoromethoxy)-5′-iodo-2′,3′-dihydro-3H-spiro[imidazo[1,2-a]pyridine-2,1′-indene]-6-carbonitrile] was tested. Which IC50 [1] did it give?
Its IC50 is 0.542 µM.

And the IC50 [2]?
The IC50 was 0.135 µM.

What about the IC50 [3] of the same molecule?
Its IC50 is at most 0.006 µM.

What does the source list for `Fc1c(C(F)(F)F)ccc2c1CC[C@@]21CN2C=C(C(F)(F)F)C=C(OC(F)F)C2=N1` [Example 74, (S)-8-(difluoromethoxy)-4′-fluoro-5′,6-bis(trifluoromethyl)-2′,3′-dihydro-3H-spiro[imidazo[1,2-a]pyridine-2,1′-indene]]?
IC50 [1]: 0.517 µM; IC50 [2]: 0.108 µM; IC50 [3]: ≤ 0.01 µM

For `COc1ccc2c(c1F)CCC[C@@]21CN2C=C(C(F)(F)F)C=C(F)C2=N1` [Example 76, (S)-5′,8-difluoro-6′-methoxy-6-(trifluoromethyl)-3′,4′-dihydro-2′H,3H-spiro[imidazo[1,2-a]pyridine-2,1′-naphthalene]], which IC50 [1] is on record?
Its IC50 is 0.777 µM.

What about the IC50 [2] of the same molecule?
Its IC50 is 0.175 µM.

And the IC50 [3]?
Its IC50 is 0.049 µM.

For `FC1=CC(C(F)(F)F)=CN2C[C@@]3(CCCc4cc(C(F)(F)F)ccc43)N=C12` [Example 77, (S)-8-fluoro-6,6′-bis(trifluoromethyl)-3′,4′-dihydro-2′H,3H-spiro[imidazo[1,2-a]pyridine-2,1′-naphthalene]], which IC50 [1] is on record?
The IC50 was 0.6 µM.

And the IC50 [2]?
The IC50 was 0.103 µM.

What about the IC50 [3] of the same molecule?
Its IC50 is at most 0.003 µM.
